Laboratory results from article PMC11009625, “Antibiotic class with potent in vivo activity targeting lipopolysaccharide synthesis in Gram-negative bacteria” (Proceedings of the National Academy of Sciences of the …, 2024).
≈ marks a conversion by molar mass, not a printed value. Like-named read-outs stand apart in the source and are kept apart here.

Experiments:
[1] = test system: PaLpxH; experiment: PaLpxH enzyme inhibition compared to EcLpxH; type: biochemical, P. aeruginosa; settings: PaLpxH vs EcLpxH
[2] = test system: clinical MDR K. pneumoniae isolates; experiment: MIC, clinical multi-drug resistant K. pneumoniae isolates; type: cell-based; settings: Klebsiella pneumoniae
Procedure: (§1) Minimum inhibitory concentration (MIC) values were determined according to the Clinical Laboratory Standards Institute guidelines. Frequency of resistance was determined by plating ~5 × 10^8 bacterial cells on agar-solidified media plates containing test compound at concentrations corresponding to four times the measured solid-media MIC of the strains. Colonies were counted after 24 h, restreaked onto media containing the same concentration of compound, and the MIC remeasured against the assayed compound. Genomic DNA from isolated clones was sequenced by paired-end sequencing on an Illumina MiSeq device. Complete experimental details available in SI Appendix. […]
(§2) Minimum inhibitory concentration (MIC) determination. Broth microdilution and agar dilution MIC assays were conducted according to CLSI guidelines (M07-2012). Appropriate inoculation suspension density was assessed using a Sensititre Nephelometer with a Sensititre 0.5 […]
(§3) McFarland Standard. […]
To determine the […]
genotype of MDR strains from the ENABLE strain collection, de novo assembled contigs were […]

[3] = test system: clinical MDR E. coli isolates; experiment: MIC, clinical multi-drug resistant E. coli isolates; type: cell-based; settings: Escherichia coli
Procedure: as §1, §2, §3
(§4) Whole-genome sequencing and data analysis. Genomic DNA of selected clones was prepared using an Epicentre MasterPure Complete DNA Purification Kit. Whole-genome sequencing libraries were prepared using an Illumina Nextera XT Library Preparation Kit. The libraries were sequenced using an Illumina MiSeq device with a V3 600-cycle reagent kit. Whole-genome sequencing data was analyzed using CLC Genomics Workbench Version 11. To determine the genotype of MDR strains from the ENABLE strain collection, de novo assembled contigs were […]

[4] = test system: lpxH mutants of EN243 (Eco MG1655 ∆tolC); experiment: MIC, lpxH mutants with reduced susceptibility in efflux-defective E. coli background; type: cell-based; settings: Escherichia coli
Procedure: as §1, §2, §3
Frequency of Resistance. Frequency of resistance was assessed by spread plating between […] cfu of a freshly-grown culture of the strain of interest on plates containing a concentration of compound corresponding to 4 times the MIC of the strain (as determined by agar-dilution MIC). Serial dilutions of the same cultures were plated on non-selective media to determine the number of cells plated. The frequency of resistance was determined by dividing the number of colonies obtained on the selective plates after 24 hours of growth by the calculated total population plated. Typically 4 independently grown cultures were used to initiate 4 separate experiments, and the total combined number of obtained colonies and plated populations were used for calculations. Isolated colonies from selection plates were re-streaked on an additional plate containing the same concentration of compound used in the original selection. Clones were saved at -80 °C for subsequent analysis.
as §4, with “11.” for “11. To determine the genotype of MDR strains from the ENABLE strain collection, de novo assembled contigs were”

[5] = read-out: MIC K. pneumoniae EN0140
[6] = read-out: MIC K. pneumoniae EN0142
[7] = read-out: MIC K. pneumoniae EN0143
[8] = read-out: MIC K. pneumoniae EN0144
[9] = read-out: MIC K. pneumoniae EN0145
[10] = read-out: MIC K. pneumoniae EN0233
[11] = read-out: MIC K. pneumoniae EN0245
[12] = read-out: MIC K. pneumoniae EN0504

Row | SMILES | MIC ([4]; MG1655, read-out: MIC CH6045) [µg/mL] | MIC ([4]; MG1655, read-out: MIC CH6047) [µg/mL] | MIC ([4]; MG1655, read-out: MIC CH6048) [µg/mL] | MIC ([4]; MG1655, read-out: MIC CH6051) [µg/mL] | MIC ([4]; MG1655, read-out: MIC CH7010) [µg/mL] | MIC ([4]; MG1655, read-out: MIC CH7011) [µg/mL] | MIC ([4]; MG1655, read-out: MIC CH7012) [µg/mL] | MIC ([4]; MG1655, read-out: MIC CH7013) [µg/mL] | MIC ([4]; MG1655, read-out: MIC CH7015) [µg/mL] | MIC ([4]; MG1655, read-out: MIC CH7016) [µg/mL] | MIC ([4]; MG1655, read-out: MIC CH8845) [µg/mL] | MIC ([4]; MG1655, read-out: MIC CH8846) [µg/mL] | MIC ([4]; MG1655, read-out: MIC CH8847) [µg/mL] | MIC ([4]; MG1655, read-out: MIC CH8848) [µg/mL] | MIC ([4]; MG1655, read-out: MIC CH8850) [µg/mL] | MIC ([4]; MG1655, read-out: MIC CH8851) [µg/mL] | MIC ([4]; MG1655, read-out: MIC CH8853) [µg/mL] | MIC ([4]; MG1655, read-out: MIC CH8854) [µg/mL] | MIC ([4]; MG1655, read-out: MIC CH8855) [µg/mL] | MIC ([4]; MG1655, read-out: MIC CH8856) [µg/mL] | also measured
1 | Cc1cc(C#N)nc(N2CCN(S(=O)(=O)c3ccc(NC(=O)c4cc(CNCCCN)ccc4N(C)S(C)(=O)=O)cc3)CC2)n1.Cl.Cl [EBL-3599] | – | – | – | – | – | – | – | – | – | – | – | – | – | – | – | – | – | – | – | – | Factor of decrease in inhibitory effect on PaLpxH compared to EcLpxH [1]: > 10; MIC [2, 5]: 1 µg/mL; MIC [2, 6]: 2 µg/mL; MIC [2, 7]: 2 µg/mL; MIC [2, 8]: 2 µg/mL; MIC [2, 9]: 4 µg/mL; MIC [2, 10]: 4 µg/mL; MIC [2, 11]: 8 µg/mL; MIC [2, 12]: 4 µg/mL; MIC ([3]; read-out: MIC E. coli EN0134): 2 µg/mL; MIC ([3]; read-out: MIC E. coli EN0135): 2 µg/mL; MIC ([3]; read-out: MIC E. coli EN0136): 2 µg/mL; MIC ([3]; read-out: MIC E. coli EN0137): 4 µg/mL; MIC ([3]; read-out: MIC E. coli EN0138): 2 µg/mL; MIC ([3]; read-out: MIC E. coli EN0139): 4 µg/mL; MIC ([3]; read-out: MIC E. coli EN0303): 16 µg/mL; MIC ([3]; read-out: MIC E. coli EN0481): 2 µg/mL
2 | CC(=O)N1CCc2cc(S(=O)(=O)N3CCN(c4cccc(C(F)(F)F)c4)CC3)ccc21 [AZ1, reference compound] | 2 (≈ 4.41 µM) | > 64 | 0.5 (≈ 1.1 µM) | > 64 | 2 (≈ 4.41 µM) | 2 (≈ 4.41 µM) | 4 (≈ 8.82 µM) | 64 (≈ 141 µM) | > 64 | 2 (≈ 4.41 µM) | 2 (≈ 4.41 µM) | 2 (≈ 4.41 µM) | > 64 | 4 (≈ 8.82 µM) | 2 (≈ 4.41 µM) | 1 (≈ 2.21 µM) | 2 (≈ 4.41 µM) | 2 (≈ 4.41 µM) | > 64 | > 64 | MIC ([4]; MG1655, read-out: MIC CH8868): > 64 µg/mL; MIC ([4]; MG1655, read-out: MIC CH8869): 0.125 µg/mL (≈ 0.276 µM); MIC ([4]; MG1655, read-out: MIC CH8870): > 64 µg/mL; MIC ([4]; MG1655, read-out: MIC CH8871): > 64 µg/mL
3 | Cc1cc(C#N)nc(N2CCN(S(=O)(=O)c3ccc(NC(=O)c4cc(CN5CC(CN)C5)ccc4N(C)S(C)(=O)=O)cc3)CC2)n1 [EBL-3647] | – | – | – | – | – | – | – | – | – | – | – | – | – | – | – | – | – | – | – | – | Factor of decrease in inhibitory effect on PaLpxH compared to EcLpxH [1]: > 10; MIC [2, 5]: 1 µg/mL (≈ 1.5 µM); MIC [2, 6]: 2 µg/mL (≈ 2.99 µM); MIC [2, 7]: 2 µg/mL (≈ 2.99 µM); MIC [2, 8]: 2 µg/mL (≈ 2.99 µM); MIC [2, 9]: 4 µg/mL (≈ 5.99 µM); MIC [2, 10]: 4 µg/mL (≈ 5.99 µM); MIC [2, 11]: 4 µg/mL (≈ 5.99 µM); MIC [2, 12]: 4 µg/mL (≈ 5.99 µM); MIC ([3]; read-out: MIC E. coli EN0134): 2 µg/mL (≈ 2.99 µM); MIC ([3]; read-out: MIC E. coli EN0135): 2 µg/mL (≈ 2.99 µM); MIC ([3]; read-out: MIC E. coli EN0136): 4 µg/mL (≈ 5.99 µM); MIC ([3]; read-out: MIC E. coli EN0137): 2 µg/mL (≈ 2.99 µM); MIC ([3]; read-out: MIC E. coli EN0138): 4 µg/mL (≈ 5.99 µM); MIC ([3]; read-out: MIC E. coli EN0139): 4 µg/mL (≈ 5.99 µM); MIC ([3]; read-out: MIC E. coli EN0303): 16 µg/mL (≈ 24 µM); MIC ([3]; read-out: MIC E. coli EN0481): 1 µg/mL (≈ 1.5 µM)
4 | CN(c1ccccc1C(=O)Nc1ccc(S(=O)(=O)N2CCCCC2)cc1)S(C)(=O)=O [JEDI-852] | 64 (≈ 142 µM) | > 64 | 32 (≈ 70.9 µM) | > 64 | 2 (≈ 4.43 µM) | 16 (≈ 35.4 µM) | 16 (≈ 35.4 µM) | > 64 | 32 (≈ 70.9 µM) | 16 (≈ 35.4 µM) | 32 (≈ 70.9 µM) | 32 (≈ 70.9 µM) | > 64 | > 64 | > 64 | 8 (≈ 17.7 µM) | > 64 | > 64 | > 64 | > 64 | MIC ([4]; MG1655, read-out: MIC CH8868): > 64 µg/mL; MIC ([4]; MG1655, read-out: MIC CH8869): 4 µg/mL (≈ 8.86 µM); MIC ([4]; MG1655, read-out: MIC CH8870): 32 µg/mL (≈ 70.9 µM); MIC ([4]; MG1655, read-out: MIC CH8871): > 64 µg/mL
5 | CN(c1ccccc1C(=O)Nc1ccc(S(=O)(=O)N2CCN(c3cccc(C(F)(F)F)c3)CC2)cc1)S(C)(=O)=O [JEDI-1444] | 0.25 (≈ 0.419 µM) | 1 (≈ 1.68 µM) | 0.064 (≈ 0.107 µM) | > 2 | 0.064 (≈ 0.107 µM) | 0.25 (≈ 0.419 µM) | 0.064 (≈ 0.107 µM) | 0.125 (≈ 0.21 µM) | 0.064 (≈ 0.107 µM) | 0.125 (≈ 0.21 µM) | 1 (≈ 1.68 µM) | 0.25 (≈ 0.419 µM) | > 2 | 0.5 (≈ 0.838 µM) | 0.5 (≈ 0.838 µM) | 0.25 (≈ 0.419 µM) | 0.25 (≈ 0.419 µM) | 0.25 (≈ 0.419 µM) | > 2 | > 2 | MIC ([4]; MG1655, read-out: MIC CH8868): 2 µg/mL (≈ 3.35 µM); MIC ([4]; MG1655, read-out: MIC CH8869): 0.064 µg/mL (≈ 0.107 µM); MIC ([4]; MG1655, read-out: MIC CH8870): 0.25 µg/mL (≈ 0.419 µM); MIC ([4]; MG1655, read-out: MIC CH8871): 2 µg/mL (≈ 3.35 µM)
